According to PMC8551311, “Energy transfer between the nicotinamide nucleotide transhydrogenase and ATP synthase of Escherichia coli” (Scientific Reports, 2021):

What was measured:
[1] = molecular target: T1, E. coli F1F0 ATP synthase (Escherichia coli, UniProt P0ABB0+P0ABB4); experiment: ATP synthesis in proteoliposomes, luciferin/luciferase luminescence; format: biochemical; set-up: gene atpA; with ATP synthase gamma chain; ATP synthase subunit delta; ATP synthase epsilon chain; ATP synthase subunit a; ATP synthase subunit b; ATP synthase subunit c; details: 250 μM ADP, 40 mM KH2PO4, 5 mM MgCl2, 1.5 mM NAD+, 750 μM NADPH; 50 mM HEPES pH 7.5, 100 mM KCl; co-reconstituted with transhydrogenase
[2] = molecular target: T1, E. coli F1F0 ATP synthase; set-up: gene atpA; details: 250 μM ATP, 2-4 mM MgCl2; 50 mM HEPES pH 7.5, 100 mM KCl; co-reconstituted with transhydrogenase

Row | SMILES | ATP synthesis in proteoliposomes, luciferin/luciferase luminescence [1] | ATP-driven proton pumping in proteoliposomes (ACMA quench); APADH absorbance 375 [2]
1 | Nc1ncnc2c1ncn2[C@@H]1O[C@H](COP(=O)(O)OP(=O)(O)O)[C@@H](O)[C@H]1O [ADP] | upon addition of NADPH, continuous ATP synthesis is observed | –
2 | Nc1ncnc2c1ncn2[C@@H]1O[C@H](COP(=O)(O)OP(=O)(O)OP(=O)(O)O)[C@@H](O)[C@H]1O [ATP] | – | addition of ATP energized inward proton pumping by ATP synthase
